Results: PubChem BioAssay (NCI)
Values joined by “and” are separate entries in the source; they are usually repeats but may differ in a detail not shown here. Identical values can stand only once.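 A five-concentration, 48-hour dose response in 96-well plates underlies each endpoint, interpolated linearly between surrounding concentrations. The concentration for 50% growth inhibition is given as GI50. Definition used: TGI = concentration required for complete inhibition of growth.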

Legend:
Test in all cases: inhibition of tumour cell growth, NCI panel, 48 h
[1] = system: SF-295 CNS
[2] = system: UO-31 renal
[3] = system: MOLT-4 leukemia
[4] = system: SW-620 colon
[5] = system: A498 renal
[6] = system: HL-60(TB) leukemia
[7] = system: HCC-2998 colon
[8] = system: MDA-MB-435
[9] = system: CCRF-CEM leukemia
[10] = system: MCF7 breast

| Compound | TGI [1] | TGI [2] | TGI [3] [µM] | TGI [4] [µM] | TGI [5] | TGI [6] | TGI [7] | TGI [8] [µM] | TGI [9] | TGI [10] | GI50 [1] [µM] | GI50 [2] [µM] | GI50 [3] [µM] | GI50 [4] [µM] | GI50 [5] [µM] | GI50 [6] [µM] | GI50 [7] [µM] | GI50 [8] [µM] | GI50 [9] [µM] | GI50 [10] [µM] |
| --- | --- | --- | --- | --- | --- | --- | --- | --- | --- | --- | --- | --- | --- | --- | --- | --- | --- | --- | --- | --- |
| Cc1cc(NC(=O)NC(=O)c2ccccc2NC(=O)C(C)N)ccc1Oc1ncc(Br)cn1 (centres undefined) | 4.91 µM | 26.9 µM | 52.2 | 44.4 | 0.529 µM | 0.558 µM | 4.38 µM | 0.257 | 17.4 µM | 58.2 µM | – | – | – | – | – | – | – | – | – | – |
| O=c1cnn(C2OC(CO)C(O)C2O)c(=S)[nH]1 (centres undefined) | > 100 µM | > 100 µM | > 30.7 | > 74.6 | > 100 µM | > 100 µM | > 100 µM | > 100 | > 100 µM | > 100 µM | – | – | – | – | – | – | – | – | – | – |
| Cc1cc([N+](=O)[O-])c(NS(=O)(=O)c2cccc(C(=O)O)c2)cc1-c1cccnc1 | > 100 µM | > 100 µM | > 100 | > 100 | > 100 µM | > 100 µM | > 100 µM | > 100 | > 100 µM | > 100 µM | > 100 | > 100 | > 100 | > 100 | > 100 | > 100 | > 100 | > 100 | > 100 | > 100 |
| COC(=O)C1(Cc2ccc3c(c2)CCC3)Cc2ccccc2C1O (centres undefined) | 35.2 µM | 29.2 µM | 35.5 | 43.5 | 33.7 µM | > 100 µM | 31.9 µM | 36.7 | 47.5 µM | 49.6 µM | – | – | – | – | – | – | – | – | – | – |
| Cc1ccccc1OCC(O)CN1CCN(c2ccc(Cl)cc2)CC1 (centres undefined) | 29.6 µM | 20.8 µM | 57.5 | 33.1 | 24.6 µM | 56 µM | 31.6 µM | 28.8 | 44.1 µM | 31.5 µM | 14.4 | 6.75 | 14.7 | 16.1 | 11.9 | 17.6 | 16.7 | 14.4 | 16.4 | 16.9 |
| Cc1[nH]c2ccccc2c1CCCO | > 100 µM | > 100 µM | > 100 | > 100 | > 100 µM | > 100 µM | > 100 µM | > 100 | > 100 µM | > 100 µM | > 100 | 75.2 | > 100 | > 100 | > 100 | > 100 | > 100 | > 100 | > 100 | > 100 |
| C[C@H]1CC[C@@]2(NC1)O[C@H]1C[C@H]3[C@@H]4CC[C@H]5C[C@@H](O)CC[C@]5(C)[C@H]4CC[C@]3(C)[C@H]1[C@@H]2C | 42.9 µM and > 100 µM | 44.6 µM and > 100 µM | > 100 | 50 | 35.2 µM and > 100 µM | 50 µM and > 100 µM | 22 µM and > 100 µM | 50 | 50 µM and > 100 µM | 36.8 µM and > 100 µM | 14.8 | 14.2 | > 50 | 24.9 | 13.8 | 42.5 | 9.32 | 17.3 | 18.3 | 12.9 |
| C=CCN=C(N/N=C/c1ccc([N+](=O)[O-])o1)NS(=O)(=O)c1cc(C(=O)Nc2ccc(Cl)cc2)c(Cl)cc1SC | > 100 µM | > 100 µM | > 39.5 | > 100 | > 100 µM | 8.09 µM | 5.96 µM | 7.05 | > 100 µM | > 100 µM | > 100 | > 49.9 | – | 1.02 | 28.5 | 1.05 | 2.29 | 2.88 | 4.81 | 1.28 |
| O=C(/C=C/Sc1cc(C(F)(F)F)cc(C(F)(F)F)c1)c1ccc(Cl)cc1 | 29.6 µM | 6.05 µM | 9.12 | 41.3 | 29.3 µM | 11.4 µM | 33.4 µM | 15.3 | 1.74 µM | 35.8 µM | 13.6 | 2.85 | 1.64 | 17 | 15.9 | 2 | 19.2 | 4.22 | 0.271 | 13.6 |
| O=C(Nc1cccc(-n2cc(-c3ccncc3)c(-c3ccc(Cl)c(O)c3)n2)c1)Nc1cc(C(F)(F)F)cc(C(F)(F)F)c1 | 1.65 µM | 1.77 µM | 4.36 | 3.73 | 2.3 µM | 6.63 µM | 2.04 µM | 2.07 | 6.78 µM | 4.62 µM | 0.618 | 0.676 | 1.15 | 1.18 | 0.595 | 1.13 | 0.977 | 0.829 | 0.789 | 0.666 |
| O=C1OCC2=C1C(c1cccc(Cl)c1)c1cc3c(cc1N2CCO)OCCO3 (centres undefined) | 3.25 µM | > 69.4 µM | > 100 | > 100 | 0.58 µM | 0.346 µM | 2.91 µM | 0.0626 | > 100 µM | 97.6 µM | 0.0403 | 0.0736 | 0.348 | 0.04 | 0.0265 | 0.0472 | 0.157 | 0.0236 | 0.112 | 0.0379 |
| CC(=O)NCCC1CN(C(=O)/C=C/I)c2ccccc21 (centres undefined) | 28.9 µM | 6.85 µM | > 64.6 | 4.53 | 17.5 µM | > 100 µM | 29.6 µM | 18.5 | > 38.6 µM | 2.87 µM | – | – | – | – | – | – | – | – | – | – |
